The values below come from patent publication US8431606B2, “Medicament for treating schizophrenia comprising cilostazol” (Otsuka Pharmaceutical Co., Ltd., priority 2007, dated 2013).

Assay type in all cases: in vivo
Assay [1] has as its system model animals prepared with phencyclidine. Kind of assay: re-recognizing test for a new object in model animals prepared with phencyclidine. The settings on record: male ICR mice, phencyclidine 10 mg/kg s.c. 10 days. As to the method:
Male ICR mice (6 weeks old, 25-30 g, purchased from Japan SLC, Inc.) were used as experimental animals. The experimental procedure was approved by the laboratory animal ethics committee in the Graduate School of Medicine and School of Medicine, Chiba University. Phencyclidine was subcutaneously administered to the mice in 10 mg/kg once a day for 10 days. […] Twenty four hours after the final administration, re-recognizing test for a new object was carried out. The re-recognizing test for a new object was carried out using a black open-field (50.8×50.8×25.4 cm). The mice were made to be trained in the open-field for three days before starting the re-recognizing test for a new object. Two objects which have almost the same size but different shapes and colors were set separating off in a distance of 35.5 cm, and then the mice were made to seek for 10 minutes. After the seeking, the mice were put back to the gauge. Twenty four hours after the first seeking, a memory retention test was carried out. On this memory retention test, one of the objects was replaced by a new one. The mice were made to seek for 5 minutes, and the time which was taken to seek each object was recorded. The results were shown as a ratio of the seeking time of the new object against that of the two objects. The data were shown as mean±standard deviation. The statistical analyses thereof were carried out using one-way ANOVA and post-hoc Bonferroni test. A p-value of 0.05 or less was considered as a statistical significance.

Assay [2] relates to locomotion of mice enhanced by administering dizocilpine. Briefly: dizocilpine-induced hyperlocomotion in mice. The settings on record: male ddY mice; cilostazol 0.03-3.0 mg/kg orally 30 minutes before dizocilpine 0.1 mg/kg s.c.; locomotion measured for 2 hours. As to the method: In this experiment, cilostazol was studied about the effect affecting the locomotion of mice which was enhanced by administering dizocilpine.
Male ddY mice (7-8 weeks old) were put in a scanning apparatus of spontaneous motor activity (SCANET SV-10, Melquest, Toyama, Japan). After 30 minutes, vehicle (0.3% CMC) or cilostazol (0.03, 0.1, 0.3, 1.0, and 3.0 mg/kg) was orally administered to the mice, and after additional 30 minutes dizocilpine (0.1 mg/kg) was administered subcutaneously. Then, the locomotion of the mice was measured for 2 hours.

In assay [3] the test system is dizocilpine-induced PPI deficits in mice. Briefly: prepulse inhibition of the acoustic startle reflex, dizocilpine-induced PPI deficits in mice. Particulars: dizocilpine 0.1 mg/kg, cilostazol administered one hour before testing, dose dependent manner. As to the method:
The test animals were prepared by similar means of the above Example 2. Cilostazol was administered one hour before testing. Testing was conducted in eight startle devices each consisting of a Plexiglas cylinder (5 cm in diameter) mounted on a Plexiglas platform in a ventilated sound attenuated cubicle with a high-frequency loudspeaker producing all acoustic stimuli. The background noise of each chamber was 65 dB. Movements within the cylinder were detected and transduced by a piezoelectric accelerometer attached to the Plexiglas base and digitized and stored by a computer. Beginning at the stimulus onset, readings were recorded to obtain the animals' startle amplitude. Each section was initiated with a 10 minutes acclimation period followed by six successive trials, which were not included in the analysis. Startle pulse alone (ST110, 110 dB/40 msec); eight different prepulse trials in which either 20-msec-long 69, 73, 77, and 81 dB stimuli were presented alone (P69, P73, P77, P81) or preceded the 110 dB pulse by 100 msec (PP69, PP73, PP77, PP81); and finally one trial in which only the background noise was presented to measure the baseline movements in the cylinder. All trials were presented in a pseudorandom order, and the average intertrial interval (ITI) was […]. The startle data and percentage prepulse inhibition (PPI) were analyzed by MANOVA (two-ways ANOVA).

For the molecule `O=C1CCc2cc(OCCCCc3nnnn3C3CCCCC3)ccc2N1` [cilostazol, 6-[4-(1-cyclohexyl-1H-tetrazol-5-yl)butoxy]-3,4-dihydrocarbostyril], the “condition of schizophrenia caused by phencyclidine (ratio of the seeking time of the new object)” value is reported as “improved significantly” in assay [1] (cilostazol 3 mg/kg orally once a day for two weeks); “improved significantly” in assay [1] (cilostazol 10 mg/kg orally once a day for two weeks); “improved significantly” in assay [1] (cilostazol 30 mg/kg orally once a day for two weeks); “improved” in assay [1] (cilostazol orally once a day for two weeks, dose-dependently). Also, the “locomotion enhanced by administering dizocilpine” value in assay [2] is listed as “significantly inhibited”. The “PPI deficits caused by administration of dizocilpine” value in assay [3] is given as “significantly inhibited”.
